Tests used:
M. tuberculosis H37Rv = assay: ex vivo anti-mycobacterial activity, growth in mouse macrophages; assay type: cell-based, Mycobacterium tuberculosis; settings: for Macrophage Data, Monolayer 1 / Macrophage Data, Monolayer 2 / Macrophage Data, Monolayer 3 / Macrophage Data, Monolayer 4 / Macrophage Data, Monolayer mean: J774 mouse macrophages infected with M. tuberculosis H37Rv; for Macrophage Data, Monolayer 1 / Macrophage Data, Monolayer 2 / Macrophage Data, Monolayer 3 / Macrophage Data, Monolayer 4: 24 hours with compound; for Macrophage Data, Monolayer mean: mean of monolayers 1-4, 24 hours; for in vitro and ex vivo activity against Mycobacterium tuberculosis compared with rifampicine (in words): general statement of the description
Klebsiella pneumoniae = assay: double-dosage method of diffusion in agar; settings: for relative activity, Klebsiella pneumoniae: activity of rifampicin taken as 1000, agar diffusion, 5 and 10 μg/ml, pH 7.4
Protocol: (§1) This test is based on the logarithmic dependence between the size of the inhibition area associated with the bacterial growth in a layer of agar (response) and the quantity of the applied antibiotic.
(§2) From these solutions buffered solutions were prepared in phosphate buffer, pH 7.4 at concentrations of 5 and 10 μg/ml.
(§3) An initial suspension of the test microorganism (Bacillus subtilis ATCC 6633, Escherichia coli, Bacillus mycoide, Klebsiella pneumoniae, Pseudomonas aeruginosa) was prepared having a UV-light transmission of about 25%. A suitable diffusion medium (for example for Bacillus subtilis: 1 g pepton, 3 g yeast extract, 15-18 g agar, in 1 l water, pH 7.8-8.0 after sterilization) was inoculated with 0.5 ml of the initial suspension per 100 ml medium at a temperature of 60-65° C. 20 ml of the mixture each was filled into Petri's dishes (diameter 100 mm). After hardening of the medium four pits (diameter 5 mm) were placed in each dish and onto every pit 90 μl of the solutions of the reference and the tested compounds were added. The dishes were incubated at 37° C. for at least 15 hours. The sizes (diameters) of the areas of inhibition were then measured with an accuracy of 0.1 mm.
(§4) The activity A was calculated according to • lg A=(lv/w) with • I=lg (high concentration/low concentration), • v=(ΣX1+ΣX2)−(ΣP1+ΣP2), and • w=(ΣX2+ΣP2)−(ΣX1+ΣP1), with • X1: area size in mm at low concentration of the sample, • X2: area size in mm at high concentration of the sample, • P1: area size in mm at low concentration of the reference, • P2: area size in mm at low concentration of the reference,

Pseudomonas aeruginosa = assay: double-dosage method of diffusion in agar; settings: for relative activity, Pseudomonas aeruginosa: activity of rifampicin taken as 1000, agar diffusion, 5 and 10 μg/ml, pH 7.4
Protocol: as §1, §2, §3, §4

[1] = tested on: Bacillus subtilis ATCC 6633; assay: double-dosage method of diffusion in agar; assay type: cell-based; settings: for relative activity, Bacillus subtilis ATCC 6633: activity of rifampicin taken as 1000, agar diffusion, 5 and 10 μg/ml, pH 7.4; for antibiotic activity compared with rifampicine (in words): against Bacillus subtilis
Escherichia coli = assay: double-dosage method of diffusion in agar; settings: for relative activity, Escherichia coli: activity of rifampicin taken as 1000, agar diffusion, 5 and 10 μg/ml, pH 7.4
Protocol: as §1, §2, §3, §4

Bacillus mycoide = assay: double-dosage method of diffusion in agar; settings: activity of rifampicin taken as 1000, 5 and 10 μg/ml, pH 7.4
Protocol: as §1, §2
An initial suspension of the test microorganism (Bacillus subtilis ATCC 6633, Escherichia coli, Bacillus mycoide, Klebsiella pneumoniae, Pseudomonas aeruginosa) was prepared having a UV-light transmission of about 25%. A suitable diffusion medium (for example for Bacillus subtilis: 1 g pepton, 3 g yeast extract, 15-18 g agar, in 1 l water, pH 7.8-8.0 after sterilization) was inoculated with 0.5 ml of the initial suspension per 100 ml medium at a temperature of 60-65° C. 20 ml of the mixture each was filled into Petri's dishes (diameter 100 mm). […] The sizes (diameters) of the areas of inhibition were then measured with an accuracy of 0.1 mm.
as §4

## CO[C@H]1/C=C/O[C@@]2(C)Oc3c(C)c(O)c4c(O)c(c(/C=N/N5CCN(C)CC5)c(O)c4c3C2=O)NC(=O)/C(C)=C\C=C\[C@H](C)[C@H](O)[C@@H](C)[C@@H](O)[C@@H](C)[C@H](OC(C)=O)[C@@H]1C [rifampicine, reference compound]
M. tuberculosis H37Rv
  Macrophage Data, Monolayer 1: 0.00 CFU/ml
  Macrophage Data, Monolayer 2: 200.00 CFU/ml
  Macrophage Data, Monolayer 3: 600.00 CFU/ml
  Macrophage Data, Monolayer 4: 800.00 CFU/ml
  Macrophage Data, Monolayer mean: 400.00 CFU/ml

## COC(=O)NC1=C2NC(=O)C(C)=CC=CC(C)C(O)C(C)C(O)C(C)C(OC(C)=O)C(C)C(OC)C=COC3(C)Oc4c(C)c(O)c(c(c4C3=O)C1=O)C2=O (stereo not drawn) [R = methyl, N-(Methyloxycarbonyl)-3-aminorifamycin S]
Klebsiella pneumoniae
  relative activity, Klebsiella pneumoniae: 1900
Klebsiella pneumoniae; against K. pneumoniae
  antibiotic activity compared with rifampicine (in words): twice as high as rifampicine
Pseudomonas aeruginosa
  relative activity, Pseudomonas aeruginosa: 1750
Pseudomonas aeruginosa; against P. aeruginosa
  antibiotic activity compared with rifampicine (in words): twice as high as rifampicine
[1]
  relative activity, Bacillus subtilis ATCC 6633: 6000
[1]; listed as N-(methyloxycarbonyl)-3-aminorifamycin S
  antibiotic activity compared with rifampicine (in words): twice as high as rifampicine
[1]; listed as methyl
  antibiotic activity compared with rifampicine (in words): about six times higher than rifampicine
Escherichia coli
  relative activity, Escherichia coli: 2100
Escherichia coli; against E. coli
  antibiotic activity compared with rifampicine (in words): twice as high as rifampicine
Bacillus mycoide
  relative activity, Bacillus mycoide: 2000
M. tuberculosis H37Rv
  Macrophage Data, Monolayer 1: 0.00 CFU/ml
  Macrophage Data, Monolayer 2: 0.00 CFU/ml
  Macrophage Data, Monolayer 3: 0.00 CFU/ml
  Macrophage Data, Monolayer 4: 200.00 CFU/ml
  in vitro and ex vivo activity against Mycobacterium tuberculosis compared with rifampicine (in words): at least as high or even higher as the activity of rifampicine
  Macrophage Data, Monolayer mean: 50.00 CFU/ml

## COC1C=COC2(C)Oc3c(C)c(O)c4c(c3C2=O)C(=O)C(NC(=O)OCCBr)=C(NC(=O)C(C)=CC=CC(C)C(O)C(C)C(O)C(C)C(OC(C)=O)C1C)C4=O (stereo not drawn) [R = 2-bromoethyl, N-(2-Bromoethyloxycarbonyl)-3-aminorifamicin S]
[1]
  relative activity, Bacillus subtilis ATCC 6633: 6600
  antibiotic activity compared with rifampicine (in words): about six times higher than rifampicine

## COC1C=COC2(C)Oc3c(C)c(O)c4c(c3C2=O)C(=O)C(NC(=O)OCc2ccc([N+](=O)[O-])cc2)=C(NC(=O)C(C)=CC=CC(C)C(O)C(C)C(O)C(C)C(OC(C)=O)C1C)C4=O (stereo not drawn) [R = 4-nitrobenzyl, N-(4-Nitrobenzyloxycarbonyl)-3-aminorifamicin S]
[1]
  relative activity, Bacillus subtilis ATCC 6633: 5400
  antibiotic activity compared with rifampicine (in words): about six times higher than rifampicine

## CCOC(=O)NC1=C2NC(=O)C(C)=CC=CC(C)C(O)C(C)C(O)C(C)C(OC(C)=O)C(C)C(OC)C=COC3(C)Oc4c(C)c(O)c(c(c4C3=O)C1=O)C2=O (stereo not drawn) [R = ethyl, N-(Ethyloxycarbonyl)-3-aminorifamycin S]
Klebsiella pneumoniae
  relative activity, Klebsiella pneumoniae: 1030
Pseudomonas aeruginosa
  relative activity, Pseudomonas aeruginosa: 920
[1]
  relative activity, Bacillus subtilis ATCC 6633: 2050
Escherichia coli
  relative activity, Escherichia coli: 690
Bacillus mycoide
  relative activity, Bacillus mycoide: 1150
M. tuberculosis H37Rv
  Macrophage Data, Monolayer 1: 0.00 CFU/ml
  Macrophage Data, Monolayer 2: 200.00 CFU/ml
  Macrophage Data, Monolayer 3: 0.00 CFU/ml
  Macrophage Data, Monolayer 4: 0.00 CFU/ml
  in vitro and ex vivo activity against Mycobacterium tuberculosis compared with rifampicine (in words): at least as high or even higher as the activity of rifampicine
  Macrophage Data, Monolayer mean: 50.00 CFU/ml
